Measured values as given in EP1538159A1, “Substituted N-benzyl-lactam derivatives as melanocortin-4 receptor agonists” (Santhera Pharmaceuticals (Schweiz) GmbH, priority 2003, dated 2005).

Tests used:
hMC-4R [1] = molecular target: T1, hMC-4R (Homo sapiens, UniProt P32245); assay: Membrane binding assay (fluorescence polarization, fluorescence labeled NDP-alpha-MSH competition); details: HEK293 cell membrane preparations
T1 construct: expressed in transfected cells; host or cells: HEK293
Experimental: (§1) A membrane binding assay is used to identify competitive inhibitors of fluorescence labeled NDP-alpha-MSH binding to HEK293 cell membrane preparations expressing human melanocortin receptors.
(§2) The test compound or unlabeled NDP-alpha-MSH is dispensed at varying concentrations to a 384 well microtiter plate. Fluorescence labeled NDP-alpha-MSH is dispensed at a single concentration, followed by addition of membrane preparations. The plate is incubated for 5 h at room temperature.
(§3) The degree of fluorescence polarization is determined with a fluorescence polarization microplate reader.

hMC-4R [2] = molecular target: T1, hMC-4R; assay: Functional cellular cAMP assay (fluorescence polarization); format: cell-based; details: for EC50: HEK293 cells, cAMP production; for % activation: cAMP production compared to stimulation with NDP-alpha-MSH; for fold improvement of functional activity: compared with WO030009850A1, Examples 1 and 34; for fold better functional activity: hMC4 EC50 compared with WO030009850A1, Example 166
Experimental: A functional cellular assay, based on competition between unlabeled cAMP and a fixed quantity of fluorescence labeled cAMP for a limited number of binding sites on a cAMP specific antibody, is used to discriminate melanocortin receptor agonists from antagonists by fluorescence polarization.
HEK293 cells expressing one of the human melanocortin receptors are transferred to 384 well microtiter plates, an appropriate amount of cAMP antibody is added, followed by the addition of different concentrations of the test compound to effect cAMP production. Cells are lysed and a fluorescence labeled cAMP conjugate is dispensed. The plate is read on a fluorescence polarization microplate reader and the amount of cAMP produced as a response to a test compound is compared to the production of cAMP resulting from stimulation with NDP-alpha-MSH.
To define antagonistic activity of a test compound, the compound is dispensed at different concentrations to cells stimulated by an appropriate amount of NDP-α-MSH. Inhibition of cAMP production is determined by comparing the inhibition of cAMP production of the test compound to the inhibition of cAMP production by a known inhibitor tested at the same concentrations.

hMC-3R = molecular target: T2, hMC-3R (Homo sapiens, UniProt P41968); assay: Membrane binding assay (fluorescence polarization, fluorescence labeled NDP-alpha-MSH competition); details: HEK293 cell membrane preparations
T2 construct: expressed in transfected cells; host or cells: HEK293
Experimental: as §1, §2, §3

hMC-5R = molecular target: T3, hMC-5R (Homo sapiens, UniProt P33032); assay: as above; details: HEK293 cell membrane preparations
T3 construct: expressed in transfected cells; host or cells: HEK293
Experimental: as §1, §2, §3

T3 sequence (P33032 whole entry): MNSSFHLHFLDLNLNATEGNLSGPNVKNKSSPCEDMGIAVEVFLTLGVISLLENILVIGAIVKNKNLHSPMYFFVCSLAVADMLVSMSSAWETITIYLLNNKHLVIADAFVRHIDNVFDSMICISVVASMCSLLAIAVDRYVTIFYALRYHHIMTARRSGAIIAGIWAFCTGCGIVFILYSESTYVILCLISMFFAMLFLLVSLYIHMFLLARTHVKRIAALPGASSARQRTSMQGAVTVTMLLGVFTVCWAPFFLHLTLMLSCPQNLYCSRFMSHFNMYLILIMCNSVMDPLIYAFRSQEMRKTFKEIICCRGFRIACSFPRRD
T1 sequence (P32245 whole entry): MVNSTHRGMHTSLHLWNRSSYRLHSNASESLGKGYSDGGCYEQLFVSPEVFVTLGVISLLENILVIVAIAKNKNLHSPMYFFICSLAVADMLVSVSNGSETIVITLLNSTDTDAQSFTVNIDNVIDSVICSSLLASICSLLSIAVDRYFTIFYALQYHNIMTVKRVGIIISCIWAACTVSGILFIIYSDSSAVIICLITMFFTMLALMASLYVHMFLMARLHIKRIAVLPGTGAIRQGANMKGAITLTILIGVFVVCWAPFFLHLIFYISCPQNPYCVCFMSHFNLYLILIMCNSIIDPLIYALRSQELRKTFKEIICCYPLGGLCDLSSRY
T2 sequence (P41968 whole entry): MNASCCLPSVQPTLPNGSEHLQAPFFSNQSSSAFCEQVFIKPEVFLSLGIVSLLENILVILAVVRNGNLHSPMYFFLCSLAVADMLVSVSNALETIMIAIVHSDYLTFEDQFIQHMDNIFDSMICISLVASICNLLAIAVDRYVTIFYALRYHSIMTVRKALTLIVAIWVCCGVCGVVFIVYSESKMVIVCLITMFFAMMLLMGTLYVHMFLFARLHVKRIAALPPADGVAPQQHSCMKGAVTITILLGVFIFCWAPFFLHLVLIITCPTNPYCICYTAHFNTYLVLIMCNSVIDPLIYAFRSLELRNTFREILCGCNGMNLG

SMILES | IC50 (hMC-4R [1]) [nM] | EC50 (hMC-4R [2]) [nM] | % activation (hMC-4R [2]) [%] | IC50 (hMC-5R) [nM] | IC50 (hMC-3R) [nM] | Functional Activity hMC-4R, % @10 µM (hMC-4R [2]; @10 µM) [%@10 µM] | Binding Activity hMC-3R, % @10 uM (hMC-3R) [%@10 uM] | fold improvement of functional activity (hMC-4R [2]) | fold better functional activity (hMC-4R [2]) [fold]
NC1c2ccccc2CCC1C(=O)N[C@H](Cc1ccc(Cl)cc1)C(=O)N1CCC(c2ccccc2CN2CCCC2=O)CC1 (single isomer, unassigned) [Example 2A] | 17 | 101 | 86 | – | – | – | – | – | –
NC1c2ccccc2CCC1C(=O)N[C@H](Cc1ccc(Cl)cc1)C(=O)N1CCC(c2ccccc2CN2CCCC2=O)CC1 (single isomer, unassigned) [Example 2B] | 7 | 29 | 90 | – | – | – | – | – | –
NC1c2ccccc2CCC1C(=O)N[C@H](Cc1ccc(Cl)cc1)C(=O)N1CCN(c2ccccc2CN2CCCC2=O)CC1 (single isomer, unassigned) [Example 4B] | 21 | 180 | 91 | 1800 | – | – | 47 | > 21 fold | 16
O=C(N[C@H](Cc1ccc(Cl)cc1)C(=O)N1CCC(c2ccccc2CN2CCCC2=O)CC1)C1CNC1 [WO030009847 Example 153, (R)-azetidine-3-carboxylic acid (1-(4-chloro-benzyl)-2-oxo-2-{4-[2-(2-oxo-pyrrolidin-1-ylmethyl)-phenyl]-piperidin-1-yl}-ethyl)-amide, reference compound] | 40 | 1020 | 107 | 3300 | 5200 | – | – | – | –
CS(=O)(=O)Nc1ccccc1N1CCN(C(=O)[C@@H](Cc2ccc(Cl)cc2)NC(=O)[C@H]2Cc3ccccc3CN2)CC1 [WO030009850 Example 1, (R,R)-1,2,3,4-tetrahydro-isoquinoline-3-carboxylic acid {1-(4-chloro-benzyl)-2-[4-(2-methanesulfonylamino-phenyl)-piperazin-1-yl]-2-oxo-ethyl}-amide, reference compound] | 500 | 3740 | 96 | – | – | – | – | – | –
CS(=O)(=O)Nc1ccccc1N1CCN(C(=O)[C@@H](Cc2ccc(Cl)cc2)NC(=O)C2CNC2)CC1 [WO030009850 Example 34, (R)-azetidine-3-carboxylic acid {1-(4-chloro-benzyl)-2-[4-(2-methanesulfonylamino-phenyl)-piperazin-1-yl]-2-oxo-ethyl}-amide, reference compound] | 2900 | – | – | – | – | 11 | – | – | –

More lines, main results first:

IC50 (hMC-4R [1]) [nM] | EC50 (hMC-4R [2]) [nM] | % activation (hMC-4R [2]) [%] | IC50 (hMC-5R) [nM] | IC50 (hMC-3R) [nM] | Functional Activity hMC-4R, % @10 µM (hMC-4R [2]; @10 µM) [%@10 µM] | SMILES | Binding Activity hMC-3R, % @10 uM (hMC-3R) [%@10 uM] | fold improvement of functional activity (hMC-4R [2]) | fold better functional activity (hMC-4R [2]) [fold]
17 | 60 | 112 | 807 | 7200 | – | O=C(N[C@H](Cc1ccc(Cl)cc1)C(=O)N1CCC(c2ccccc2CN2CCCC2=O)CC1)[C@H]1Cc2ccccc2CN1 [Example 1] | – | – | –
29 | 260 | 109 | 1300 | – | – | O=C(N[C@H](Cc1ccc(Cl)cc1)C(=O)N1CCN(c2ccccc2CN2CCCC2=O)CC1)[C@H]1Cc2ccccc2CN1 [Example 3] | 41 | more than 14 fold | 11
110 | 2850 | 90 | 6900 | 19200 | – | O=C(N[C@H](Cc1ccc(Cl)cc1)C(=O)N1CCN(c2ccccc2CN2CCCC2=O)CC1)C1CNC1 [WO030009850 Example 166, (R)-azetidine-3-carboxylic acid (1-(4-chloro-benzyl)-2-oxo-2-{4-[2-(2-oxo-pyrrolidin-1-ylmethyl)-phenyl]-piperazin-1-yl}-ethyl)-amide, reference compound] | – | – | –
